Source: patent US4931450A, “Amino acid derivatives” (Novo Industri A/S, priority 1986, dated 1990)
Counter-ions that a name gives are not always drawn. Like-named read-outs stand apart in the source and are kept apart here.

What was measured:
GABA-uptake = test: In vitro GABA-uptake inhibition, essentially as described by Fjalland, 3H-GABA as substrate; type: biochemical
Description: GABA-uptake inhibition was measured essentially as described by Fjalland (Acta Pharmacol. et. Toxicol. (1978), 42, 73-76) using 25 mM of 3H-GABA as a substrate.

[1] = tested on: DBA/2 mice (convulsions induced by loud noise; Rotarod); test: Rotarod test versus convulsions induced by loud noise in DBA/2 mice (ratio ED50 Rotarod/ED50 tonic convulsions); type: in vivo, male DBA/2 mice; conditions: i.p., Rotarod test 25 min after injection, then 14 kHz tone at 111 dB for 30 sec
Description: The convulsions induced by loud noise in the DBA/2 strain of mice is regarded as a reliable model for evaluating anti-epileptic drug effects, cf. E. N. Petersen et al.: Psychopharmacol. 83 (1984), 240, and A. G. Chapman et al.: Arzmeim.Forsch. 10 (1984), 1261. The Rotarod and Traction tests were used to evaluate the sedative properties of the test drugs.
Male DBA/2 mice (8±1 g) were used in all experiments. The animals were pretrained on the Rotarod (6 rpm; rod diameter 2.5 cm) for 1 min. The compounds tested were injected intra-peritoneally. Twenty-five min, later the animals underwent a 2 min. test on the Rotarod. The number of failures to stay on the rod was counted. An error rate higher than 10 was assigned the maximum score of 10. Immediately after the Rotarod test, the animals were tested in a Traction test, cf. Psychopharmacol. above. In this test, the animal was required to maintain grasp on a thin rod (diameter 2.5 mm) with the forepaws for five sec. and, within this period of time, to show a traction response (grasping onto the rod with one of the hindlegs). The performance on the test was based on the absence or presence of the traction response with the 5 sec. test period. Finally, after the Traction test, the animals were individually placed in a chamber in which they were exposed for 30 sec. to a 14 kHz sinus tone at 111 dB. During this period of time, the following behaviours were noted: "wild running", clonic convulsions and death.
The compounds tested were dissolved in distilled water or suspended in 5% chremophore. The injection volume was 0.2 ml/mouse.
In table 2, below, the ratio ED50 Rotarod/ED50 tonic convulsions is given for the compounds tested. NO-05-0340 is R-N-(4-(2-methylphenyl)-4-(3-methyl-2-thienyl)but-3-en-1-yl)nipecotic acid and NO-05-0356 is R-N-(4-(N-methylpyrrol-2-yl)-4-phenylbut-3-en-1-yl)nipecotic acid.

GABA uptake = conditions: orally active; cited from earlier work
[2] = 3H-GABA substrate, two separate experiments, 3-5 concentrations of test compound, read-out: IC50
[3] = R3 nipecotic acid, read-out: in vitro test value

Compound | IC50 (GABA-uptake; [2]) | other results
O=C(O)C1=CCCN(CCC=C(c2ccccc2)c2cccs2)C1 (mixture of isomers) [phenyl, thien-2-yl, guvacine, (E/Z), reference compound] | 217 nM | –
O=C(O)[C@@H]1CCCN(CCC=C(c2ccccc2)c2cccs2)C1 (mixture of isomers) [reference compound] | 236 nM | –
O=C(O)C1CCCN(CCC=C(c2ccccc2)c2cccs2)C1 (racemic) [reference compound] | 470 nM | IC50 (GABA-uptake; [3]): 470 nM
Cc1ccsc1C(=CCCN1CCC[C@@H](C(=O)O)C1)c1ccccc1F [Example 24] | 217 nM | –
Cc1ccccc1C(=CCCN1CCC[C@@H](C(=O)O)C1)c1sccc1C [NO-05-0340, R-N-(4-(2-Methylphenyl)-4-(3-methyl-2-thienyl)but-3-en-1-yl)nipecotic acid] | 74 nM | ratio ED50 Rotarod/ED50 tonic convulsions [1]: 8; IC50 (GABA-uptake; [3]): 74 nM
Cl.Cn1cccc1C(=CCCN1CCC[C@@H](C(=O)O)C1)c1ccccc1 [NO-05-0356, R-N-(4-(N-Methylpyrrol-2-yl)-4-phenylbut-3-en-1-yl)nipecotic acid hydrochloride] | 68 nM | ratio ED50 Rotarod/ED50 tonic convulsions [1]: 21
O=C(O)C1CCCN(CCC=C(c2ccccc2)c2ccccc2)C1 (stereo not drawn) [SK&F 89976A, N-(4,4-diphenyl-3-butenyl)nipicotic acid, reference compound] | – | ratio ED50 Rotarod/ED50 tonic convulsions [1]: 5; GABA uptake inhibition, oral activity (GABA uptake): orally active inhibitors of GABA uptake
O=C(O)C1=CCCN(CCC=C(c2ccccc2)c2ccccc2)C1 [SK&F 100330A, N-(4,4-diphenyl-3-butenyl)guvacine] | – | GABA uptake inhibition, oral activity (GABA uptake): orally active inhibitors of GABA uptake
O=C(O)CC1CCN(CCC=C(c2ccccc2)c2ccccc2)C1 (stereo not drawn) [SK&F 100561, N-(4,4-diphenyl-3-butenyl)-β-homoproline, reference compound] | – | ratio ED50 Rotarod/ED50 tonic convulsions [1]: 7; GABA uptake inhibition, oral activity (GABA uptake): orally active inhibitors of GABA uptake
O=C(O)C1CCCN(CCC=C(c2ccccc2)c2cccs2)C1 (stereo not drawn) [SK&F 100604J, N-(4-sphenyl-4-(2-thienyl)-3-butenyl)nipecotic acid] | – | GABA uptake inhibition, oral activity (GABA uptake): orally active inhibitors of GABA uptake

Continued by falling IC50 (GABA-uptake; [2]), values first:

IC50 (GABA-uptake; [2]) | Compound | other results
190 nM | Cc1ccc(C(=CCCN2CCC[C@@H](C(=O)O)C2)c2sccc2C)c(C)c1 [Example 10, R-N-(4-(2,4-dimethylphenyl)-4-(3-methyl-2-thienyl)but-3-en-1-yl)nipecotic acid hydrochloride] | –
162 nM | CCn1cccc1C(=CCCN1CCC=C(C(=O)O)C1)c1ccccc1 [Example 59] | –
148 nM | Cc1cc(Cl)ccc1C(=CCCN1CCC[C@@H](C(=O)O)C1)c1cccn1C [Example 57] | –
126 nM | Cn1cccc1C(=CCCN1CCC=C(C(=O)O)C1)c1ccccc1 [NO-05-0387, N-(4-(N-Methylpyrrol-2-yl)-4-phenylbut-3-en-1-yl)guvacine hydrochloride] | –
124 nM | Cc1ccsc1C(=CCCN1CCC[C@@H](C(=O)O)C1)c1cccc(Cl)c1 (mixture of isomers) | –
117 nM | Cc1ccccc1C(=CCCN1CCC=C(C(=O)O)C1)c1sccc1C [Example 15] | –
104 nM | Cc1ccsc1C(=CCCN1CCC[C@@H](C(=O)O)C1)c1cccc(Cl)c1C [Example 49] | –
89 nM | Cc1cc(Cl)ccc1C(=CCCN1CCC[C@@H](C(=O)O)C1)c1sccc1C [Example 16] | –
85 nM | CCCn1cccc1C(=CCCN1CCC[C@@H](C(=O)O)C1)c1ccccc1C [Example 14] | –
56 nM | COc1cccc(C(=CCCN2CCC[C@@H](C(=O)O)C2)c2sccc2C)c1 [Example 18] | –
49 nM | CCn1cccc1C(=CCCN1CCC[C@@H](C(=O)O)C1)c1ccccc1C [Example 58] | –
